Test results taken from patent publication US11534114B2, “18F labeled amino acids, derivatives thereof and method of making same” (SIMON FRASER UNIVERSITY, priority 2016, dated 2022).

Test system: U-87 tumor
Assay: Dynamic PET/CT time-activity curves of accumulation in selected organs
Format: in vivo, mice
Conditions: time-activity curves (FIG. 41)

In the case of `CC(C)([18F])CC[C@H](N)C(=O)O` [5-[^18F]FHL, 5-[^18F]fluorohomoleucine], the “course of activity in U-87 tumor and pancreas after the peak” value (after peak accumulation) is reported as “slow progressive efflux” and the “time of peak accumulation in the U-87 tumor and pancreas” value (intravenous injection, mice bearing U-87 xenograft, 60 min dynamic scan) is reported as less than 10 min.
